Reference: the OligoGym collection
These antisense oligonucleotides have a phosphorothioate backbone; sugars and methylation of C are not fully specified.

target: RHOC; conditions: ASO
Note: test concentration or dose not given here.

Sequence	remaining target (mRNA or protein) (fraction of control)
ACTCAAGGTAGCCAAAGG	0.67
ACTCTGGGTCCCTACTGC	0.8
AGACACTTTCCTGTGAGC	0.31
AGGCACCATCCCCAACGA	0.19
AGGGCAGGGCATAGGCGT	0.69
AGGTCTTCCCACAGGCAC	0.6
AGTTCTCAAAGACAGTAG	0.62
ATGAGGAGGCAGGTCTTC	0.59
CACTTTCCTGTGAGCCAG	0.18
CAGACCGAACGGGCTCCT	0.35
CATGAGGAAGGGCAGGGC	≥ 1
CCCCTCCGACGCTTGTTC	0.34
CCGGCTGAAGTTCCCAGG	0.58
CCTGTGAGCCAGAAGTGT	0.31
CTCAAACACCTCCCGCAC	0.66
CTCCCGCACTCCCTCCTT	0.09
CTCCTGGTGTGCTCGTCT	0.33
CTTGTTCTTGCGGACCTG	0.28
GAAAATGGAGCCTTCAGT	0.76
GAGCCTTCAGTATGGAGC	0.37

Sequence	remaining target (mRNA or protein) (fraction of control)
GAGCTGAGATGAAGTCAA	0.71
GCAGGAGGGAACTGAAAA	0.73
GCTGAAGTTCCCAGGCTG	0.75
GGAACTGAAAATGGAGCC	0.98
GGAAGGGCAGGGCATAGG	0.79
GGAGGGAACTGAAAATGG	0.87
GGCACCATCCCCAACGAT	0.19
GGCCATCTCAAACACCTC	0.36
GTATGGAGCCCTCAGGAG	0.4
GTGTGCTCGTCTTGCCTC	0.33
TAAAGTGCTGGTGTGTGA	0.61
TCAAAGACAGTAGGGACG	≥ 1
TCCCACAGGCACCATCCC	0.3
TCGTCTTGCCTCAGGTCC	0.21
TGCAGAAACAACTCCAGG	≥ 1
TGTTTTCCAGGCTGTCAG	0.41
TTCCTCAGACCGAACGGG	0.43
TTCCTGTGAGCCAGAAGT	0.31
TTCTCAAAGACAGTAGGG	0.98
TTGCTGAAGACGATGAGG	0.77

target: BIRC2; conditions: ASO

Sequence	remaining target (mRNA or protein) (fraction of control)
ATAACAGACCAATTACTG	≥ 1
ATAATTGGTGGGTCAGCA	≥ 1
ATATAGTTCACCAAACAT	≥ 1
ATTCTTATCCACAAATAA	≥ 1
CAATCTGACAAGATCGTG	≥ 1
CATTTCTTCAGCTTGTTT	≥ 1
CCAAGGTGGGAGATAATG	0.97
CCAGATTCTGAATAAAGC	≥ 1
CTAGTGTTATCAGAAACG	≥ 1
CTCAGATTTGAAATGCTA	≥ 1
GACCACAAGGAATAAATA	≥ 1
GAGTAAGAACCACTGAAC	≥ 1
GGTAACCTAAGTGCTATT	≥ 1
TACCTTGAATCTCATCAA	≥ 1
TAGAATTAAGAGGGTTTG	≥ 1
TAGAGTTCACAGGAAAAG	≥ 1
TATATGCAGGCTTCTTTC	0.77
TCAGGTAGGATGAGTATC	0.89
TCGCTTGTAAAGGTATCT	≥ 1
TGCCTTTTATTTATATTT	≥ 1
TGGTAGGTAAGAAATCTG	≥ 1
TTAAGGACTATTCAGCTA	≥ 1
TTAGATGGCTTCAAGTGT	0.9
TTAGTTAGCCATAAAATT	≥ 1
TTCCCAACACCTCAAGCC	0.45
TTCCCAGTTACTGAGCTT	0.22
TTCCTGGTTTCCAGTTCT	0.54
TTGGCTTAAAGTTCAAAA	≥ 1
TTTCTCATTGGAGACGTA	0.68
